Experimental data: US10774064B2 (Cadent Therapeutics, Inc., priority 2016, dated 2020)
Where a name gives a salt, the structure may show the parent alone.

biological target: T1, small-conductance Ca2+-activated K+ channels (SK channels, subtype 2) (Homo sapiens, UniProt Q9H2S1); assay: whole-cell patch-clamp of ionic current through SK2 channels in HEK293 cells (SC100); format: cell-based; conditions: whole-cell patch-clamp, HEK293 cells expressing SK2 channels; concentration that increases the basal current by 100%
T1 construct: expressed in transfected cells; host or cells: HEK293
In short: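 Whole-cell patch-clamp recording of current in HEK293 cells expressing SK2 channels. SC100 is the compound concentration that increases basal current by 100%.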

SMILES | SC100 (μM)
Cc1ccn(-c2nc(NC3CCC(F)(F)CC3)cc(OCc3ncco3)n2)n1 [IN11053-022-P1] | + (+ means >1 uM)
Cc1ccn(-c2nc(NC3CCC(F)(F)CC3)cc(OCc3cocn3)n2)n1 [IN11053-024-P1] | + (+ means >1 uM)
COC(=O)NCc1cc(NC2CCC(F)(F)CC2)nc(-n2ccc(C)n2)n1 [IN11053-033-P1, methyl ((6-((4,4-difluorocyclohexyl)amino)-2-(3-methyl-1H-pyrazol-1-yl)pyrimidin-4-yl)methyl) carbamate] | + (+ means >1 uM)
Cc1ccn(-c2nc(COc3ccc(C(N)=O)nn3)cc(NC3CCC(F)(F)CC3)n2)n1 [IN11053-046-P1] | +++ (+++ means <200 nM)
C=Cc1cc(NC2CCC(F)(F)CC2)nc(-n2ccc(C)n2)n1 [IN11053-052-P1] | ++ (++ means 200 nM-1000 nM)
CC(=O)c1cc(NC2CCC(F)(F)CC2)nc(-n2ccc(C(F)(F)F)n2)n1 [IN11053-059-P1, 1-(6-((4,4-difluorocyclohexyl)amino)-2-(3-(trifluoromethyl)-1H-pyrazol-1-yl)pyrimidin-4-yl)ethan-1-one] | + (+ means >1 uM)
OCc1cc(NC2CCC(F)(F)CC2)nc(-n2ccc(C(F)(F)F)n2)n1 [IN11053-060-P1, (6-((4,4-difluorocyclohexyl)amino)-2-(3-(trifluoromethyl)-1H-pyrazol-1-yl)pyrimidin-4-yl) methanol] | ++ (++ means 200 nM-1000 nM)
CC(O)c1cc(NC2CCC(F)(F)CC2)nc(-n2ccc(C(F)(F)F)n2)n1 (stereo not shown) [IN11053-062-P1, 1-(6-((4,4-difluorocyclohexyl)amino)-2-(3-(trifluoromethyl)-1H-pyrazol-1-yl)pyrimidin-4-yl)ethan-1-ol] | + (+ means >1 uM)
COCc1cc(NC2CCC(F)(F)CC2)nc(-n2ccc(C(F)(F)F)n2)n1 [IN11053-071-P1, N-(4,4-difluorocyclohexyl)-6-(methoxymethyl)-2-(3-(trifluoromethyl)-1H-pyrazol-1-yl)pyrimidin-4-amine] | + (+ means >1 uM)
COC(C)c1cc(N(C)C2CCC(F)(F)CC2)nc(-n2ccc(C(F)(F)F)n2)n1 (stereo not shown) [IN11053-073-P1, N-(4,4-difluorocyclohexyl)-6-(1-methoxyethyl)-N-methyl-2-(3-(trifluoromethyl)-1H-pyrazol-1-yl)pyrimidin-4-amine] | + (+ means >1 uM)
COC(C)c1cc(NC2CCC(F)(F)CC2)nc(-n2ccc(C(F)(F)F)n2)n1 (stereo not shown) [IN11053-076-P1, N-(4,4-difluorocyclohexyl)-6-(1-methoxyethyl)-2-(3-(trifluoromethyl)-1H-pyrazol-1-yl)pyrimidin-4-amine] | + (+ means >1 uM)
Cc1ccn(-c2cc(C(C)OC(=O)N(C)C)cc(NC3CCC(F)(F)CC3)n2)n1 (stereo not shown) [IN11054-003-P1, 1-(2-((4,4-difluorocyclohexyl)amino)-6-(3-methyl-1H-pyrazol-1-yl)pyridin-4-yl)ethyl dimethylcarbamate] | ++ (++ means 200 nM-1000 nM)
COC(=O)NC(C)c1cc(NC2CCC(F)(F)CC2)nc(-n2ccc(C)n2)c1 (stereo not shown) [IN11054-005-P1, methyl (1-(2-((4,4-difluorocyclohexyl)amino)-6-(3-methyl-1H-pyrazol-1-yl)pyridin-4-yl)ethyl) carbamate] | + (+ means >1 uM)
Cc1ccn(-c2nc(NC3CCC(F)(F)CC3)cc(OCC(F)(F)F)n2)n1 [IN11054-011-P1] | + (+ means >1 uM)
Cc1ccn(-c2nc(NC3CCC(F)(F)CC3)cc(OCc3cnco3)n2)n1 [IN11054-012-P1] | ++ (++ means 200 nM-1000 nM)
Cc1ccn(-c2cc(NC3CCC(F)(F)CC3)nc(-n3ccc(C)n3)c2)n1 [IN11054-030-P1, N-(4,4-difluorocyclohexyl)-4,6-bis(3-methyl-1H-pyrazol-1-yl)pyridin-2-amine] | + (+ means >1 uM)
COc1cc(NC2CCC(F)(F)CC2)nc(-n2nc(C)cc2C)c1 [IN11054-038-P1] | + (+ means >1 uM)
CSc1cc(NC2CCC(F)(F)CC2)nc(-c2nc(C)cs2)n1 [IN11054-039-P1] | ++ (++ means 200 nM-1000 nM)
Cc1csc(-c2nc(NC3CCC(F)(F)CC3)cc(S(C)(=O)=O)n2)n1 [IN11054-046-P1] | + (+ means >1 uM)
Cc1csc(-c2nc(NC3CCC(F)(F)CC3)cc([S+](C)[O-])n2)n1 (stereo not shown) [IN11054-046-P2] | ++ (++ means 200 nM-1000 nM)
COc1cc(NC2CCC(F)(F)CC2)nc(-n2ccc(C)n2)c1 [IN11054-054-P1, N-(4,4-difluorocyclohexyl)-4-methoxy-6-(3-methyl-1H-pyrazol-1-yl)pyridin-2-amine] | ++ (++ means 200 nM-1000 nM)
Cc1cc(C)n(-c2cc(C)c(CNC3CCC(F)(F)CC3)nn2)n1 [IN11054-078-P1, N-((6-(3,5-dimethyl-1H-pyrazol-1-yl)-4-methylpyridazin-3-yl)methyl)-4,4-difluorocyclohexan-1-amine] | + (+ means >1 uM)

Further lines, results first:

SC100 (μM) | SMILES
++ (++ means 200 nM-1000 nM) | Cc1csc(-c2nc(NC3CCC(F)(F)CC3)cc(C3CCC3)n2)n1 [IN11054-081-P1, 6-cyclobutyl-N-(4,4-difluorocyclohexyl)-2-(4-methylthiazol-2-yl)pyrimidin-4-amine]
+ (+ means >1 uM) | CCOc1cc(NC2CCC(F)(F)CC2)nc(-c2nc(C)cs2)n1 [IN11055-015-P1]
+ (+ means >1 uM) | Cc1csc(-c2nc(NC3CCC(F)(F)CC3)cc(OC(C)C)n2)n1 [IN11055-016-P1]
+ (+ means >1 uM) | COc1cc(NC2CCCCC2)nc(-n2nc(C)cc2C)n1 [IN11055-044-P1]
++ (++ means 200 nM-1000 nM) | Cc1csc(-c2nc(NC3CCC(F)(F)CC3)cc(N(C)C)n2)n1 [IN11055-046-P1]
++ (++ means 200 nM-1000 nM) | CNc1cc(NC2CCC(F)(F)CC2)nc(-c2nc(C)cs2)n1 [IN11055-049-P1]
+ (+ means >1 uM) | COc1cc(NC2CCCC2)nc(-c2nc(C)cs2)n1 [IN11055-066-P1]
+ (+ means >1 uM) | Cc1csc(-c2nc(N)cc(NC3CCC(F)(F)CC3)n2)n1 [IN11055-068-P1, N4-(4,4-difluorocyclohexyl)-2-(4-methylthiazol-2-yl)pyrimidine-4,6-diamine]
++ (++ means 200 nM-1000 nM) | COc1cc(NC2CCC(C)(C)CC2)nc(-c2nc(C)cs2)n1 [IN11055-069-P1, N-(4,4-dimethylcyclohexyl)-6-methoxy-2-(4-methylthiazol-2-yl)pyrimidin-4-amine]
+ (+ means >1 uM) | COc1cc(NC2CCC(C)(C)CC2)nc(-n2ccc(C)n2)n1 [IN11055-078-P1, N-(4,4-dimethylcyclohexyl)-6-methoxy-2-(3-methyl-1H-pyrazol-1-yl)pyrimidin-4-amine]
+ (+ means >1 uM) | COc1cc(NC2CCC(F)CC2)nc(-n2nc(C)cc2C)n1 (stereo not shown) [IN11055-079-P1]
+ (+ means >1 uM) | COc1cc(NC2CC3CCC2C3)nc(-c2nc(C)cs2)n1 (stereo not shown) [IN11055-087-P1]
+++ (+++ means <200 nM) | Cc1csc(-c2nc(NC3CCC(F)(F)CC3)cc(OCc3cnco3)n2)n1 [IN11059-047-P1]
++ (++ means 200 nM-1000 nM) | Cc1csc(-c2nc(NC3CCC(F)(F)CC3)cc(OCCNS(C)(=O)=O)n2)n1 [IN11059-052-P1]
++ (++ means 200 nM-1000 nM) | Cc1ccn(-c2nc(NC3CCC(F)(F)CC3)cc([S+](C)[O-])n2)n1 (stereo not shown) [IN11059-069-P1]
++ (++ means 200 nM-1000 nM) | CSc1cc(NC2CCC(F)(F)CC2)nc(-n2ccc(C)n2)n1 [IN11059-070-P1]
+ (+ means >1 uM) | Cc1ccn(-c2nc(NC3CCC(F)(F)CC3)cc(S(C)(=O)=O)[n+]2[O-])n1 [IN11059-071-P1]
++ (++ means 200 nM-1000 nM) | CC(=O)N(C)Cc1cc(NC2CCC(F)(F)CC2)nc(-c2nc(C)cs2)n1 [IN11059-090-P1]
++ (++ means 200 nM-1000 nM) | Cc1csc(-c2nc(CN(C)C=O)cc(NC3CCC(F)(F)CC3)n2)n1 [IN11059-095-P1]
+ (+ means >1 uM) | CNCc1cc(NC2CCC(F)(F)CC2)nc(-c2nc(C)cs2)n1 [IN11059-096-P1, N-(4,4-difluorocyclohexyl)-6-((methylamino)methyl)-2-(4-methylthiazol-2-yl)pyrimidin-4-amine]
+ (+ means >1 uM) | CCOc1cc(NC2CCC(F)(F)CC2)nc(-n2ccc(C)n2)n1 [IN11063-005-P1]
++ (++ means 200 nM-1000 nM) | Cc1ccn(-c2cc(CN(C)C)cc(NC3CCC(F)(F)CC3)n2)n1 [IN11063-006-P1, N-(4,4-difluorocyclohexyl)-4-((dimethylamino)methyl)-6-(3-methyl-1H-pyrazol-1-yl)pyridin-2-amine]
+ (+ means >1 uM) | COC(=O)NC(C)(C)c1cc(NC2CCC(F)(F)CC2)nc(-n2ccc(C)n2)c1 [IN11063-030-P1, methyl (2-(2-((4,4-difluorocyclohexyl)amino)-6-(3-methyl-1H-pyrazol-1-yl)pyridin-4-yl)propan-2-yl)carbamate]
+ (+ means >1 uM) | Cc1cc(NC2CCC(F)(F)CC2)cc(-c2nc(C)cs2)c1 [IN11063-086-P2, N-(4,4-difluorocyclohexyl)-3-methyl-5-(4-methylthiazol-2-yl) aniline]
++ (++ means 200 nM-1000 nM) | Cc1csc(-c2cc(N)cc(NC3CCC(F)(F)CC3)n2)n1 [IN11063-087-P1, N2-(4,4-difluorocyclohexyl)-6-(4-methylthiazol-2-yl)pyridine-2,4-diamine]
+ (+ means >1 uM) | Cc1ccn(-c2nc(N3CCOCC3)cc3c2CCN3)n1 [IN11063-092-P1, 4-(4-(3-methyl-1H-pyrazol-1-yl)-2,3-dihydro-1H-pyrrolo[3,2-c]pyridin-6-yl)morpholine hydrochloride]
++ (++ means 200 nM-1000 nM) | CNc1cc(NC2CCC(F)(F)CC2)nc(-c2nc(C)cs2)c1 [IN11063-096-P1, N2-(4,4-difluorocyclohexyl)-N4-methyl-6-(4-methylthiazol-2-yl)pyridine-2,4-diamine]
